Like-named read-outs stand apart in the source and are kept apart here.
What was measured:
CYP2C9 F114W mutant [1] = molecular target: T1, CYP2C9 F114W mutant (Homo sapiens, UniProt P11712, F114W)
[2] = molecular target: T2, CYP2C9 F114L/F476L double mutant (Homo sapiens, UniProt P11712, F114L/F476L); conditions: F114L/F476L
CYP2C9 F100L mutant [3] = molecular target: T3, CYP2C9 F100L mutant (Homo sapiens, UniProt P11712, F100L); experiment: biochemical
CYP2C9 F476W mutant [4] = molecular target: T4, CYP2C9 F476W mutant (Homo sapiens, UniProt P11712, F476W)
[5] = molecular target: T2, CYP2C9 F114L/F476L double mutant; experiment: biochemical
wild-type CYP2C9 [6] = molecular target: T5, wild-type CYP2C9 (Homo sapiens, UniProt P11712); conditions: WT; for T1, 2C9 + CO: dithionite/CO
wild-type CYP2C9 [7] = molecular target: T5, wild-type CYP2C9
CYP2C9 F476W mutant [8] = molecular target: T4, CYP2C9 F476W mutant; experiment: biochemical
[9] = molecular target: T6, CYP2C9 F114W/F476W double mutant (Homo sapiens, UniProt P11712, F114W/F476W); experiment: biochemical
wild-type CYP2C9 [10] = molecular target: T5, wild-type CYP2C9; remark: listed apart in the source
CYP2C9 F476L mutant [11] = molecular target: T7, CYP2C9 F476L mutant (Homo sapiens, UniProt P11712, F476L)
CYP2C9 F100L mutant [12] = molecular target: T3, CYP2C9 F100L mutant
CYP2C9 F114W mutant [13] = molecular target: T1, CYP2C9 F114W mutant; experiment: biochemical
CYP2C9 F476L mutant [14] = molecular target: T7, CYP2C9 F476L mutant; conditions: F476L
CYP2C9 F114W mutant [15] = molecular target: T1, CYP2C9 F114W mutant; conditions: F114W
CYP2C9 F476W mutant [16] = molecular target: T4, CYP2C9 F476W mutant; remark: listed apart in the source
wild-type CYP2C9 [17] = molecular target: T5, wild-type CYP2C9; experiment: biochemical
CYP2C9 F114L mutant [18] = molecular target: T8, CYP2C9 F114L mutant (Homo sapiens, UniProt P11712, F114L)
[19] = molecular target: T2, CYP2C9 F114L/F476L double mutant
CYP2C9 F114L mutant [20] = molecular target: T8, CYP2C9 F114L mutant; experiment: biochemical
CYP2C9 F476W mutant [21] = molecular target: T4, CYP2C9 F476W mutant; experiment: in vitro; conditions: pH 7.4
CYP2C9 F476W mutant [22] = molecular target: T4, CYP2C9 F476W mutant; remark: listed apart in the source
CYP2C9 F100L mutant [23] = molecular target: T3, CYP2C9 F100L mutant; conditions: F100L
wild-type CYP2C9 [24] = molecular target: T5, wild-type CYP2C9; remark: listed apart in the source
[25] = molecular target: T6, CYP2C9 F114W/F476W double mutant; conditions: F114W/F476W
[26] = molecular target: T6, CYP2C9 F114W/F476W double mutant

C[C@H](C(=O)O)c1ccc(-c2ccccc2)c(F)c1 [(S)-flurbiprofen]
percent of wild-type kcat/Km (CYP2C9 F114W mutant [1]): 120%
kcat (CYP2C9 F114W mutant [1]; substrate hydroxylation): 0.153 ± 0.0067 s⁻¹
percent of wild-type ΔA/K [2]: 8%
ΔA/K [2]: 0.4 μM^−1 × 10^−3
ΔAmax (maximum observed difference 390–420 nm) [2]: 4.4 ± 0.2 ×10^−3
Kd (CYP2C9 F100L mutant [3]): 2.2 ± 0.2 µM
H2O2/O2 (CYP2C9 F476W mutant [4]): 0.71
H2O/Metabolite (CYP2C9 F476W mutant [4]): 1.6
Metabolite/NADPH (CYP2C9 F476W mutant [4]; coupling efficiency): 0.06
Kd [5]: 9.9 ± 1.3 µM
T1, 2C9 (wild-type CYP2C9 [6]; proton H2): 2.44 (0.10) seconds
r, distance of proton from the heme iron (wild-type CYP2C9 [6]; proton H2): 5.95 (0.11) angstroms
T1, 2C9 + CO (wild-type CYP2C9 [6]; proton H2): 2.79 (0.14) seconds
T1, 2C9 (wild-type CYP2C9 [6]; proton H4′): 3.44 (0.26) seconds
r, distance of proton from the heme iron (wild-type CYP2C9 [6]; proton H4′): 6.11 (0.19) angstroms
T1, 2C9 + CO (wild-type CYP2C9 [6]; proton H4′): 4.25 (0.44) seconds
T1, 2C9 (wild-type CYP2C9 [6]; proton H5): 2.17 (0.07) seconds
r, distance of proton from the heme iron (wild-type CYP2C9 [6]; proton H5): 6.27 (0.16) angstroms
T1, 2C9 + CO (wild-type CYP2C9 [6]; proton H5): 2.26 (0.10) seconds
T1, 2C9 (wild-type CYP2C9 [6]; proton H6): 1.79 (0.05) seconds
r, distance of proton from the heme iron (wild-type CYP2C9 [6]; proton H6): 7.30 (0.19) angstroms
T1, 2C9 + CO (wild-type CYP2C9 [6]; proton H6): 2.04 (0.10) seconds
T1, 2C9 (wild-type CYP2C9 [6]; protons CH3): 0.68 (0.01) seconds
r, distance of proton from the heme iron (wild-type CYP2C9 [6]; protons CH3): 7.82 (0.09) angstroms
T1, 2C9 + CO (wild-type CYP2C9 [6]; protons CH3): 0.68 (0.01) seconds
T1, 2C9 (wild-type CYP2C9 [6]; protons H2′/6′): 2.38 (0.07) seconds
r, distance of proton from the heme iron (wild-type CYP2C9 [6]; protons H2′/6′): 6.02 (0.37) angstroms
T1, 2C9 + CO (wild-type CYP2C9 [6]; protons H2′/6′): 2.77 (0.07) seconds
T1, 2C9 (wild-type CYP2C9 [6]; protons H3′/5′): 2.42 (0.08) seconds
r, distance of proton from the heme iron (wild-type CYP2C9 [6]; protons H3′/5′): 5.82 (0.15) angstroms
T1, 2C9 + CO (wild-type CYP2C9 [6]; protons H3′/5′): 2.70 (0.11) seconds
fraction high spin (wild-type CYP2C9 [7]; WT + ligand, used for the NMR distance calculation): 0.16
percent of wild-type ΔA/K (wild-type CYP2C9 [7]; Wild-type): 100%
ΔA/K (wild-type CYP2C9 [7]; Wild-type): 5.3 μM^−1 × 10^−3
ΔAmax (maximum observed difference 390–420 nm) (wild-type CYP2C9 [7]; Wild-type): 18 ± 0.5 ×10^−3
Kd (CYP2C9 F476W mutant [8]): 18.3 ± 1.9 µM
Kd [9]: 22.3 ± 4.1 µM
percent of wild-type kcat/Km (wild-type CYP2C9 [10]; WT): 100%
kcat (wild-type CYP2C9 [10]; WT, substrate hydroxylation): 0.15 ± 0.0067 s⁻¹
Km at 20 min (wild-type CYP2C9 [10]; human, pH 7.4): 22.9 ± 3.7 µM
percent of wild-type kcat/Km (CYP2C9 F476L mutant [11]; F476L): 29%
decrease of the efficiency of metabolism (CYP2C9 F476L mutant [11]; F476→L mutation vs wild-type): 70%
percent of wild-type kcat/Km (CYP2C9 F100L mutant [12]): 100%
kcat (CYP2C9 F100L mutant [12]; substrate hydroxylation): 0.205 ± 0.012 s⁻¹
Kd (CYP2C9 F114W mutant [13]): 4 ± 0.2 µM
percent of wild-type ΔA/K (CYP2C9 F476L mutant [14]): 23%
ΔA/K (CYP2C9 F476L mutant [14]): 1.2 μM^−1 × 10^−3
ΔAmax (maximum observed difference 390–420 nm) (CYP2C9 F476L mutant [14]): 11 ± 0.4 ×10^−3
percent of wild-type ΔA/K (CYP2C9 F114W mutant [15]): 160%
ΔA/K (CYP2C9 F114W mutant [15]): 8.5 μM^−1 × 10^−3
ΔAmax (maximum observed difference 390–420 nm) (CYP2C9 F114W mutant [15]): 34 ± 0.4 ×10^−3
percent of wild-type ΔA/K (CYP2C9 F476W mutant [16]; F476W): 5%
ΔA/K (CYP2C9 F476W mutant [16]; F476W): 0.3 μM^−1 × 10^−3
fraction high spin (CYP2C9 F476W mutant [16]; F476W + ligand, used for the NMR distance calculation): 0.06
Kd (wild-type CYP2C9 [17]): 3.4 ± 0.4 µM
percent of wild-type kcat/Km (CYP2C9 F114L mutant [18]): 28%
percent of wild-type kcat/Km [19]: 3%
Kd (CYP2C9 F114L mutant [20]): 4.1 ± 0.6 µM
Km at 20 min (CYP2C9 F476W mutant [21]): 105 ± 3.9 µM
decrease of efficiency of turnover relative to wild-type (CYP2C9 F476W mutant [22]): 20 fold
percent of wild-type kcat/Km (CYP2C9 F476W mutant [22]): 5%
kcat (CYP2C9 F476W mutant [22]; substrate hydroxylation): 0.0267 ± 0.0033 s⁻¹
percent of wild-type ΔA/K (CYP2C9 F100L mutant [23]): 137%
ΔA/K (CYP2C9 F100L mutant [23]): 7.3 μM^−1 × 10^−3
ΔAmax (maximum observed difference 390–420 nm) (CYP2C9 F100L mutant [23]): 16 ± 0.3 ×10^−3
H2O2/O2 (wild-type CYP2C9 [24]; WT): 0.43
H2O/Metabolite (wild-type CYP2C9 [24]; WT): 0.7
Metabolite/NADPH (wild-type CYP2C9 [24]; WT, coupling efficiency): 0.21
coupling of hydroxylation to NADPH consumption (wild-type CYP2C9 [24]; wild-type CYP2C9): ~ 20%
percent of wild-type ΔA/K [25]: 6%
ΔA/K [25]: 0.3 μM^−1 × 10^−3
ΔAmax (maximum observed difference 390–420 nm) [25]: 7.3 ± 0.4 ×10^−3
percent of wild-type kcat/Km [26]: 3%
kcat ([26]; substrate hydroxylation): 0.0517 ± 0.0013 s⁻¹
